# Where two headings read alike, the source gives them in different places. Starred links: 1 amine or outer side, 2 acyl side, 3 side chain; linkers in the order of their positions; H or OH if unused. Positions of bridges follow the written chain, without caps; N, C: chain ends. Non-standard residues stand in square brackets, D forms with d. Residues, ends and D or L forms follow the SMILES beside them. *: point of attachment. X43 = O=C(O)[C@@H]1CCC[C@H](C(=O)Nc2ccc(-c3ccc(C[C@H](N[*:1])C(=O)[*:2])cc3)cc2)C1; X34 = Cc1cc(C(=O)O)cc(C(=O)Nc2ccc(-c3ccc(C[C@H](N[*:1])C(=O)[*:2])cc3)cc2)c1; X46 = O=C(Cc1cccc(C(=O)O)c1)Nc1ccc(-c2ccc(C[C@H](N[*:1])C(=O)[*:2])cc2)cc1; dArg(ω-(2S)-2,3-diOHpropyl) = N=C(NCCC[C@@H](N)C(=O)O)NC[C@H](O)CO; Bip(4'-NH) = O=C([C@H](Cc1ccc(-c2ccc(N[*:3])cc2)cc1)N[*:1])[*:2]; Indazole3carbonyl(1-CH2COOH) = O=C(O)Cn1nc(C(=O)*)c2ccccc21; Bip(4'-COOH) = N[C@@H](Cc1ccc(-c2ccc(C(=O)O)cc2)cc1)C(=O)O; Bip(4'-NHAc) = CC(=O)Nc1ccc(-c2ccc(C[C@H](N)C(=O)O)cc2)cc1; Indole3carbonyl(1-CH2COOH) = O=C(O)Cn1cc(C(=O)*)c2ccccc21; X27 = N=C(NCCC[C@@H](N[*:1])C(=O)[*:2])NCCc1ccc2c(c1)OCO2; X26 = N=C(NCCC[C@@H](N[*:1])C(=O)[*:2])NCc1ccc(O)cc1; Pro(trans-4-Ph) = O=C(O)[C@@H]1C[C@@H](c2ccccc2)CN1; Ala(imidazol-2-yl) = N[C@@H](Cc1ncc[nH]1)C(=O)O; Ala(morpholin-4-yl) = N[C@@H](CN1CCOCC1)C(=O)O; Benzoyl(3-OCH2COOH) = O=C(O)COc1cccc(C(=O)*)c1; Benzoyl(4-OCH2COOH) = O=C(O)COc1ccc(C(=O)*)cc1; Bip = N[C@@H](Cc1ccc(-c2ccccc2)cc1)C(=O)O; X16 = Cc1noc(-c2ccc(C(=O)*)cc2)n1; 2Pal = N[C@@H](Cc1ccccn1)C(=O)O; Tic = O=C(O)[C@@H]1Cc2ccccc2CN1; 2Thi = N[C@@H](Cc1cccs1)C(=O)O; Cha = N[C@@H](CC1CCCCC1)C(=O)O; Nle = CCCC[C@H](N)C(=O)O; Sar = CNCC(=O)O
# Molecular target: TNFα (Homo sapiens, UniProt P01375)
# Sequence (P01375 77-233 limits assumed): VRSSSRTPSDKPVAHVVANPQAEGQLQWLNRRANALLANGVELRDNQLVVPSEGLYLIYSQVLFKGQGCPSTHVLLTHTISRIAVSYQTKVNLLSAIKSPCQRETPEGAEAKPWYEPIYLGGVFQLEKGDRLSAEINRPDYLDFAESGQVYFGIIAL
# Assay: TNF-Induced HEK-Blue Assay
# Assay type: cell-based
# [1] = HEK-Blue-CD40L cells, NF-kB-driven secreted alkaline phosphatase reporter, TNFα 0.5 ng/ml, 18 h, read-out: TNF induced HEK-Blue assay IC50 value
Compound,IC50 [1] [nM],IC50 [nM]
"CC(C)C[C@@H]1NC(=O)[C@H](CCCNC(=N)N)NC(=O)[C@H](C(C)C)NC(=O)[C@@H]2CCCN2C(=O)[C@H](C(C)C)NC(=O)[C@@H](CCCNC(=N)NC[C@H](O)CO)NC(=O)[C@H](CC(=O)O)NC(=O)[C@@H]2CCCN2C(=O)CN(C)C(=O)[C@H](Cc2ccc(-c3ccc(NC(=O)c4cn(CC(=O)O)c5ccccc45)cc3)cc2)NC(=O)[C@H](Cc2ccc(-c3ccccc3)cc2)NC(=O)[C@H](CN2CCOCC2)NC(=O)CSC[C@@H](C(=O)NCC(N)=O)NC1=O [Example 540] ({CH2CO}-[Ala(morpholin-4-yl)][Bip][Bip(4'-NH)](Indole3carbonyl(1-CH2COOH))[Sar]PD[dArg(ω-(2S)-2,3-diOHpropyl)]VPVRLCG-NH2; thioether N-13)",,< 50
CCCC[C@@H]1NC(=O)[C@@H]2CCCN2C(=O)[C@H](C(C)C)NC(=O)[C@@H](CCCNC(=N)N)NC(=O)[C@H](CC(=O)O)NC(=O)[C@H](Cc2ccc(O)cc2)NC(=O)CN(C)C(=O)[C@H](Cc2ccc(-c3ccccc3)cc2)NC(=O)[C@H](Cc2ccc(-c3ccccc3)cc2)NC(=O)[C@H](CN2CCOCC2)NC(=O)CSC[C@@H](C(=O)NCC(N)=O)NC(=O)[C@H](CC(C)C)NC(=O)[C@H](Cc2ccc(O)cc2)NC1=O [Example 163] ({CH2CO}-[Ala(morpholin-4-yl)][Bip][Bip][Sar]YD[dR]VP[Nle]YLCG-NH2; thioether N-13),200 to 2000,
CC(C)C[C@@H]1NC(=O)[C@H](Cc2ccc(O)cc2)NC(=O)[C@H](C(C)C)NC(=O)[C@@H]2CCCN2C(=O)[C@H](C(C)C)NC(=O)[C@H](CCCNC(=N)N)NC(=O)[C@H](CC(=O)O)NC(=O)[C@@H]2C[C@@H](c3ccccc3)CN2C(=O)CN(C)C(=O)[C@H](Cc2ccc(-c3ccccc3)cc2)NC(=O)[C@H](Cc2ccc(-c3ccccc3)cc2)NC(=O)[C@H](CN2CCOCC2)NC(=O)CSC[C@@H](C(=O)NCC(N)=O)NC1=O [Example 95] ({CH2CO}-[Ala(morpholin-4-yl)][Bip][Bip][Sar][Pro(trans-4-Ph)]DRVPVYLCG-NH2; thioether N-13),200 to 2000,
CC[C@H](C)[C@@H]1NC(=O)[C@@H](CCCNC(=N)N)NC(=O)[C@H](CC(=O)O)NC(=O)[C@H](Cc2cnc[nH]2)NC(=O)CN(C)C(=O)[C@H](Cc2ccc(-c3ccc(NC(=O)c4ccc(-c5nc(C)no5)cc4)cc3)cc2)NC(=O)[C@H](Cc2ccc(-c3ccc(C(=O)O)cc3)cc2)NC(=O)[C@H](CC2CCCCC2)NC(=O)CSC[C@@H](C(=O)NCC(N)=O)NC(=O)[C@H](CC(C)C)NC(=O)[C@H](Cc2ncc[nH]2)NC(=O)[C@H](C(C)C)NC(=O)[C@@H]2Cc3ccccc3CN2C1=O [Example 412] ({CH2CO}-[Cha][Bip(4'-COOH)][Bip(4'-NH)](X16)[Sar]HD[dR]I[Tic]V[Ala(imidazol-2-yl)]LCG-NH2; thioether N-13),50 to 200,
CC(C)C[C@@H]1NC(=O)[C@H](Cc2ccc(O)cc2)NC(=O)[C@H](C(C)C)NC(=O)[C@@H]2Cc3ccccc3CN2C(=O)[C@H](C(C)C)NC(=O)[C@@H](CCCNC(=N)N)NC(=O)[C@H](CC(=O)O)NC(=O)[C@@H]2CCCN2C(=O)CN(C)C(=O)[C@H](Cc2ccc(-c3ccc(NC(=O)c4cccc(OCC(=O)O)c4)cc3)cc2)NC(=O)[C@H](Cc2ccc(-c3ccc(C(=O)O)cc3)cc2)NC(=O)[C@H](CC2CCCCC2)NC(=O)CSC[C@@H](C(=O)NCC(N)=O)NC1=O [Example 369] ({CH2CO}-[Cha][Bip(4'-COOH)][Bip(4'-NH)](Benzoyl(3-OCH2COOH))[Sar]PD[dR]V[Tic]VYLCG-NH2; thioether N-13),50 to 200,
CC[C@H](C)[C@@H]1NC(=O)[C@@H](CCCNC(=N)N)NC(=O)[C@H](CC(=O)O)NC(=O)[C@H](Cc2cnc[nH]2)NC(=O)CN(C)C(=O)[C@H](Cc2ccc(-c3ccc(NC(=O)Cc4cccc(C(=O)O)c4)cc3)cc2)NC(=O)[C@H](Cc2ccc(-c3ccccc3)cc2)NC(=O)[C@H](CC2CCCCC2)NC(=O)CSC[C@@H](C(=O)NCC(N)=O)NC(=O)[C@H](CC(C)C)NC(=O)[C@H](Cc2cnc[nH]2)NC(=O)[C@H](C(C)C)NC(=O)[C@@H]2CCCN2C1=O [Example 328] ({CH2CO}-[Cha][Bip][X46][Sar]HD[dR]IPVHLCG-NH2; thioether N-13),50 to 200,
CC[C@H](C)[C@@H]1NC(=O)[C@@H](CCCNC(=N)N)NC(=O)[C@H](CC(=O)O)NC(=O)[C@H](Cc2cnc[nH]2)NC(=O)CN(C)C(=O)[C@H](Cc2ccc(-c3ccc(NC(=O)[C@H]4CCC[C@@H](C(=O)O)C4)cc3)cc2)NC(=O)[C@H](Cc2ccc(-c3ccccc3)cc2)NC(=O)[C@H](CC2CCCCC2)NC(=O)CSC[C@@H](C(=O)NCC(N)=O)NC(=O)[C@H](CC(C)C)NC(=O)[C@H](Cc2cnc[nH]2)NC(=O)[C@H](C(C)C)NC(=O)[C@@H]2CCCN2C1=O [Example 446] ({CH2CO}-[Cha][Bip][X43][Sar]HD[dR]IPVHLCG-NH2; thioether N-13),50 to 200,
CC(C)C[C@@H]1NC(=O)[C@H](Cc2ccc(O)cc2)NC(=O)[C@H](C(C)C)NC(=O)CNC(=O)[C@H](C(C)C)NC(=O)[C@@H](CCCNC(=N)N)NC(=O)[C@H](CC(=O)O)NC(=O)[C@H](Cc2ccc(O)cc2)NC(=O)CN(C)C(=O)[C@H](Cc2ccc(-c3ccccc3)cc2)NC(=O)[C@H](Cc2ccc(-c3ccccc3)cc2)NC(=O)[C@H](CN2CCOCC2)NC(=O)CSC[C@@H](C(=O)NCC(N)=O)NC1=O [Example 137] ({CH2CO}-[Ala(morpholin-4-yl)][Bip][Bip][Sar]YD[dR]VGVYLCG-NH2; thioether N-13),200 to 2000,
CC(C)C[C@@H]1NC(=O)[C@H](CCCNC(=N)N)NC(=O)[C@H](C(C)C)NC(=O)[C@@H]2CCCN2C(=O)[C@H](C(C)C)NC(=O)[C@@H](CCCNC(=N)NCc2ccc(O)cc2)NC(=O)[C@H](CC(=O)O)NC(=O)[C@@H]2CCCN2C(=O)CN(C)C(=O)[C@H](Cc2ccc(-c3ccc(NC(=O)c4nn(CC(=O)O)c5ccccc45)cc3)cc2)NC(=O)[C@H](Cc2ccc(-c3ccccc3)cc2)NC(=O)[C@H](CN2CCOCC2)NC(=O)CSC[C@@H](C(=O)NCC(N)=O)NC1=O [Example 508] ({CH2CO}-[Ala(morpholin-4-yl)][Bip][Bip(4'-NH)](Indazole3carbonyl(1-CH2COOH))[Sar]PD[X26]VPVRLCG-NH2; thioether N-13),,< 50
CC(C)C[C@@H]1NC(=O)[C@H](CCCNC(=N)N)NC(=O)[C@H](C(C)C)NC(=O)[C@@H]2CCCN2C(=O)[C@H](C(C)C)NC(=O)[C@@H](CCCNC(=N)NCCc2ccc3c(c2)OCO3)NC(=O)[C@H](CC(=O)O)NC(=O)[C@@H]2CCCN2C(=O)CN(C)C(=O)[C@H](Cc2ccc(-c3ccc(NC(=O)c4nn(CC(=O)O)c5ccccc45)cc3)cc2)NC(=O)[C@H](Cc2ccc(-c3ccccc3)cc2)NC(=O)[C@H](CN2CCOCC2)NC(=O)CSC[C@@H](C(=O)NCC(N)=O)NC1=O [Example 408] ({CH2CO}-[Ala(morpholin-4-yl)][Bip][Bip(4'-NH)](Indazole3carbonyl(1-CH2COOH))[Sar]PD[X27]VPVRLCG-NH2; thioether N-13),,< 50

# Second part, led by results:
IC50 [1] [nM],Compound,IC50 [nM]
< 50,CC[C@H](C)[C@@H]1NC(=O)[C@@H]2CCCN2C(=O)[C@H]([C@@H](C)CC)NC(=O)[C@@H](CCCNC(=N)N)NC(=O)[C@H](CC(=O)O)NC(=O)[C@H](Cc2ccc(O)cc2)NC(=O)CN(C)C(=O)[C@H](Cc2ccc(-c3ccc(NC(C)=O)cc3)cc2)NC(=O)[C@H](Cc2ccc(-c3ccccc3)cc2)NC(=O)[C@H](CN2CCOCC2)NC(=O)CSC[C@@H](C(=O)NCC(N)=O)NC(=O)[C@H](CC(C)C)NC(=O)[C@H](Cc2cccs2)NC1=O [Example 293] ({CH2CO}-[Ala(morpholin-4-yl)][Bip][Bip(4'-NHAc)][Sar]YD[dR]IPI[2Thi]LCG-NH2; thioether N-13),
< 50,CC(C)C[C@@H]1NC(=O)[C@H](Cc2cnc[nH]2)NC(=O)[C@H](C(C)C)NC(=O)[C@@H]2CCCN2C(=O)[C@H](C(C)C)NC(=O)[C@@H](CCCNC(=N)N)NC(=O)[C@H](CC(=O)O)NC(=O)[C@H](Cc2cnc[nH]2)NC(=O)CN(C)C(=O)[C@H](Cc2ccc(-c3ccc(NC(=O)c4ccc(OCC(=O)O)cc4)cc3)cc2)NC(=O)[C@H](Cc2ccc(-c3ccccc3)cc2)NC(=O)[C@H](CC2CCCCC2)NC(=O)CSC[C@@H](C(=O)NCC(N)=O)NC1=O [Example 489] ({CH2CO}-[Cha][Bip][Bip(4'-NH)](Benzoyl(4-OCH2COOH))[Sar]HD[dR]VPVHLCG-NH2; thioether N-13),
< 50,CC(=O)Nc1ccc(-c2ccc(C[C@@H]3NC(=O)[C@H](Cc4ccc(-c5ccc(C(=O)O)cc5)cc4)NC(=O)[C@H](CN4CCOCC4)NC(=O)CSC[C@@H](C(=O)NCC(N)=O)NC(=O)[C@H](CC(C)C)NC(=O)[C@H](CCCNC(=N)N)NC(=O)[C@H](C(C)C)NC(=O)[C@@H]4CCCN4C(=O)[C@H](C(C)C)NC(=O)[C@@H](CCCNC(=N)N)NC(=O)[C@H](CC(=O)O)NC(=O)[C@@H]4CCCN4C(=O)CN(C)C3=O)cc2)cc1 [Example 165] ({CH2CO}-[Ala(morpholin-4-yl)][Bip(4'-COOH)][Bip(4'-NHAc)][Sar]PD[dR]VPVRLCG-NH2; thioether N-13),
< 50,CC(=O)Nc1ccc(-c2ccc(C[C@@H]3NC(=O)[C@H](Cc4ccc(-c5ccccc5)cc4)NC(=O)[C@H](CN4CCOCC4)NC(=O)CSC[C@@H](C(=O)NCC(N)=O)NC(=O)[C@H](CC(C)C)NC(=O)[C@H](Cc4ccccn4)NC(=O)[C@H](C(C)C)NC(=O)[C@@H]4CCCN4C(=O)[C@H](C(C)C)NC(=O)[C@@H](CCCNC(=N)N)NC(=O)[C@H](CC(=O)O)NC(=O)[C@H](Cc4ccccc4)NC(=O)CN(C)C3=O)cc2)cc1 [Example 228] ({CH2CO}-[Ala(morpholin-4-yl)][Bip][Bip(4'-NHAc)][Sar]FD[dR]VPV[2Pal]LCG-NH2; thioether N-13),
< 50,CC[C@H](C)[C@@H]1NC(=O)[C@@H](CCCNC(=N)N)NC(=O)[C@H](CC(=O)O)NC(=O)[C@H](Cc2cnc[nH]2)NC(=O)CN(C)C(=O)[C@H](Cc2ccc(-c3ccc(NC(=O)c4cc(C)cc(C(=O)O)c4)cc3)cc2)NC(=O)[C@H](Cc2ccc(-c3ccccc3)cc2)NC(=O)[C@H](CC2CCCCC2)NC(=O)CSC[C@@H](C(=O)NCC(N)=O)NC(=O)[C@H](CC(C)C)NC(=O)[C@H](Cc2cnc[nH]2)NC(=O)[C@H](C(C)C)NC(=O)[C@@H]2CCCN2C1=O [Example 443] ({CH2CO}-[Cha][Bip][X34][Sar]HD[dR]IPVHLCG-NH2; thioether N-13),
